From ChEMBL document CHEMBL1201862, “PubChem BioAssay data set” (2004) come the findings set out here.

A short description of assay [1]: NIH/3T3 cell viability loss – mouse embryonic fibroblasts, dry powder, set 2, cytotoxicity control, dose response (AID 493247). Type of assay: functional, cell-based. The settings on record: Fibroblast.
For assay [2], the target named is T1, Kappa-type opioid receptor (Homo sapiens, UniProt P41145). As to the kind of experiment: SAR analysis of small molecule antagonists of the kappa opioid receptor via a luminescent beta-arrestin assay - Set 4. [Related pubchem assays (depositor defined):AID1777, AID1778, AID1785, AID1786, AID1966, AID2133, AID2136, AID2285]. Type of assay: functional.
For assay [3], the target named is Delta-type opioid receptor (Homo sapiens, UniProt P41143). As to the kind of experiment: SAR Analysis of Antagonists of the DOR Receptor using an Image-Based Assay - Set 3. [Related pubchem assays (depositor defined):AID1777, AID1785]. It counts as functional.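 Note: U2OS cells expressing DOR1 and beta-arrestin GFP stimulated with 100 nM SNC80; imaging of GFP-tagged beta-arrestin moving into spots after receptor activation.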
Assay [4] addresses T1, Kappa-type opioid receptor. As to the kind of experiment: SAR analysis of small molecule antagonists of the kappa opioid receptor via a luminescent beta-arrestin assay - Set 6. [Related pubchem assays (depositor defined):AID1777, AID1778, AID1785, AID1786, AID1966, AID2133, AID2136, AID2285]. Type of assay: functional.
The target of another assay is Mu-type opioid receptor (Homo sapiens, UniProt P35372). As to the kind of experiment: SAR Analysis of Antagonists of the MOR Receptor using an Image-Based Assay - Set 3. [Related pubchem assays (depositor defined):AID1777, AID1785, AID1786, AID1966, AID2133, AID2136, AID2284, AID2285, AID2420]. Type of assay: functional.
For assay [5], the target named is T1, Kappa-type opioid receptor. As to the kind of experiment: SAR analysis of Antagonists of the Kappa Opioid Receptor (KOR) using an Image-Based Assay - Set 4. [Related pubchem assays (depositor defined):AID1777, AID1785]. Type of assay: functional.
In the next assay the target is NS3 (Hepatitis C virus, UniProt A3EZJ3). As to the kind of experiment: PubChem AID 2173. Also noted: species or system Hepacivirus hominis.
The next assay addresses Albumin (Bos taurus, UniProt P02769). As to the kind of experiment: Counterscreen for inhibitors of T-cell receptor (TCR)-CD3 interaction: Fluorescence-based biochemical high throughput dose response assay to identify inhibitors of T-cell receptor (TCR)-CD3 interaction using a TAMRA-labeled BSA probe. Type of assay: functional.
The test system of another assay is Streptococcus. As to the kind of experiment: GAS UMAA2166 growth inhibition – luminescence, BacTiterGlo, counter-screen for streptokinase expression inhibitor project, dose response (AID 1915).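 Note: potency for reduction of bacterial viability or growth.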 It counts as functional, organism-based.
Assay [6] deals with Streptococcus sp. 'group A'. As to the kind of experiment: Streptococcus pyogenes SK(-)GAS viability under kanamycin – luminescence, BacTiterGlo, confirmation, counter-screen for streptokinase expression inhibitor project, dose response (AID 1900). Type of assay: functional, organism-based.
A further assay addresses T2, Caspase-3 (Homo sapiens, UniProt P42574).
T2 sequence (P42574 whole entry): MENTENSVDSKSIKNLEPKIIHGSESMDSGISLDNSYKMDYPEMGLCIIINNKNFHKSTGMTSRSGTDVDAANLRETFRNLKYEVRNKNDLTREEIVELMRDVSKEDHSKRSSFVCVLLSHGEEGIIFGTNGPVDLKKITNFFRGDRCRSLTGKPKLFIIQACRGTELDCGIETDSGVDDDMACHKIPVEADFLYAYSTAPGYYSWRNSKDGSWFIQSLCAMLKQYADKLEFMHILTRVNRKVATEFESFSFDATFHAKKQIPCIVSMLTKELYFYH
As to the kind of experiment: activation of caspase-3 zymogen – biochemical, absorbance, dose response (AID 489014).

Another assay relates to INS1. As to the kind of experiment: INS-1E survival protection against cytokine death – cell-based, luminescence, retest, dose response (AID 449756).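 Note: cell death triggered by IL-1 beta plus TNF-alpha plus IFN-gamma mixture; protective hits raise ATP signal compared with cytokine alone wells.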 The settings on record: Rattus norvegicus, INS1. Type of assay: functional.
The target of the next assay is Caspase-7 (Homo sapiens, UniProt P55210). As to the kind of experiment: activation of caspase-7 zymogen – biochemical, absorbance, counter-screen for procaspase-3 activator project, dose response (AID 489013). (In general: Counterscreens check selectivity or assay interference.)

Activity calls are given as the source filed them. Bounds are passed on as bounds.

T1 sequence (P41145 whole entry): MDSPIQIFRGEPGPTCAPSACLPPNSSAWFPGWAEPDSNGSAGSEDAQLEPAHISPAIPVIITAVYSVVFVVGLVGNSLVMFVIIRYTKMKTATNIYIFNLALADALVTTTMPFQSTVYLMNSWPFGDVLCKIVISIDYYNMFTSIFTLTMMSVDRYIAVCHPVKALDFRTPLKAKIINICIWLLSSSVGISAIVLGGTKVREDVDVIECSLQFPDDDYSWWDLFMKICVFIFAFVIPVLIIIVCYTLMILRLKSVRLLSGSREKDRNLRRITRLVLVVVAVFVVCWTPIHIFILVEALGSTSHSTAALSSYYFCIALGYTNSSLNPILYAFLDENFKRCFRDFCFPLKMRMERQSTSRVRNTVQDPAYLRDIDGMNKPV
Caspase-7, sequence (P55210 24-198 limits assumed): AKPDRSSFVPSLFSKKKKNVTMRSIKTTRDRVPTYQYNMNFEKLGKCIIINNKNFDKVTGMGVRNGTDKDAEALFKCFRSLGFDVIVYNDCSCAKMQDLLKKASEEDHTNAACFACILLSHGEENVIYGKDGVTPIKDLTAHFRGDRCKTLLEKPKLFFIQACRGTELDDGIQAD
Caspase-7, sequence (P55210 207-303 limits assumed): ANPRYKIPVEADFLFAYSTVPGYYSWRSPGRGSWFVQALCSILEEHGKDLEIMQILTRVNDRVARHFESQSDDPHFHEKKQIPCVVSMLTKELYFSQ
Delta-type opioid receptor, sequence (P41143 whole entry): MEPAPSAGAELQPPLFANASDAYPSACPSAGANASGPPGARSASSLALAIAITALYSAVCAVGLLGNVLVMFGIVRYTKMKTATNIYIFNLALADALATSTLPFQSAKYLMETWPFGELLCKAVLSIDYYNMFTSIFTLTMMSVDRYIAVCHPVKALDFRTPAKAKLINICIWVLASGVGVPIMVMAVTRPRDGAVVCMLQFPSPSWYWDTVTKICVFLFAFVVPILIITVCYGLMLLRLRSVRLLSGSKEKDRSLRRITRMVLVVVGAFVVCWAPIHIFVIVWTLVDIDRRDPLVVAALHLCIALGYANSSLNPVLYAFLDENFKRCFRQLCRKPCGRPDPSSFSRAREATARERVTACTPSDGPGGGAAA
Albumin, sequence (P02769 whole entry): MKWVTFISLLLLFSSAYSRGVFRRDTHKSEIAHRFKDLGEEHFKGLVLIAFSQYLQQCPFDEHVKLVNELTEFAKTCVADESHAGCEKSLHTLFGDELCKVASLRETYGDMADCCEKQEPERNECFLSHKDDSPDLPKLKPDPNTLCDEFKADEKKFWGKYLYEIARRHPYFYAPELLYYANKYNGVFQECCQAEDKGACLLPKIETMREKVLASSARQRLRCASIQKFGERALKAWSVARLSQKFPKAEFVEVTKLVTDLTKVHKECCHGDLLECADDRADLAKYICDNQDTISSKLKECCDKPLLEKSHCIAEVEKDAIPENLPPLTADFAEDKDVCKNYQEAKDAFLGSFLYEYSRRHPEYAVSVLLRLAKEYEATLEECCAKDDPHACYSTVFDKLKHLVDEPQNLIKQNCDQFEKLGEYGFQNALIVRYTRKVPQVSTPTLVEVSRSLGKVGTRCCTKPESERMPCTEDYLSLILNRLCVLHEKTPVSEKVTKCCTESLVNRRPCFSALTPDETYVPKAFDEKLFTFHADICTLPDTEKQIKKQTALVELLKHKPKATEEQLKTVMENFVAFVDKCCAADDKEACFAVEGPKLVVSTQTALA
NS3, sequence (A3EZJ3 whole entry): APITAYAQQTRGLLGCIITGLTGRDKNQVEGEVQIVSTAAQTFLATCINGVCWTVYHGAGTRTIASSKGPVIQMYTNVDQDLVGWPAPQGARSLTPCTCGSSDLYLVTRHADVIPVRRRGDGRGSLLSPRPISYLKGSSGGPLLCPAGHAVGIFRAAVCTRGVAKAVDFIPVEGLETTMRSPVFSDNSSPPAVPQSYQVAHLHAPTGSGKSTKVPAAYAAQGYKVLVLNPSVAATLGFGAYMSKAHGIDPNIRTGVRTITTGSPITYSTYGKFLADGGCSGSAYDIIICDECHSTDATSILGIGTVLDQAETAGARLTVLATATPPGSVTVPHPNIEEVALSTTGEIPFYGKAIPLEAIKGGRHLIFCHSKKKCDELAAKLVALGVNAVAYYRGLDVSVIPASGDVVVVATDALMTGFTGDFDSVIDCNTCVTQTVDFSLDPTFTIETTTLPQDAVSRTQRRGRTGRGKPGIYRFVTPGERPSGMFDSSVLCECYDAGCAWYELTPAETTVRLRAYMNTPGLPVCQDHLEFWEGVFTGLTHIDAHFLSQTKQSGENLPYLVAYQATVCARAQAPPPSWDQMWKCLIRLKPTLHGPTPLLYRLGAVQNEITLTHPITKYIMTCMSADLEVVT
Mu-type opioid receptor, sequence (P35372 whole entry): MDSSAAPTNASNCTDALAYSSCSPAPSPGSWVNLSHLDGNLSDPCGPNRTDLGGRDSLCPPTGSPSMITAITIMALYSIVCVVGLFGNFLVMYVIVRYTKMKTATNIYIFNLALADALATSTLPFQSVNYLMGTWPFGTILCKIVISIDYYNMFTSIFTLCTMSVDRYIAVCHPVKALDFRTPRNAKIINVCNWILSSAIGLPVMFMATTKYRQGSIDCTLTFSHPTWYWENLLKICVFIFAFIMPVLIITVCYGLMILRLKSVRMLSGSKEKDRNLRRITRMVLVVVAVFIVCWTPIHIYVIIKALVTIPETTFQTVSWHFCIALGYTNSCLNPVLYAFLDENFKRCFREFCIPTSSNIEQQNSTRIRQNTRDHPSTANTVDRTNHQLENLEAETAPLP

The term AC50 denotes the midpoint of the concentration-response curve, whichever way the signal moves. Turning to `CN(Cc1ccccc1)C(=O)C1CCCN(Cc2ccc(C(F)(F)F)cc2)C1` (stereo not drawn), in assay [1], the AC50 is 61.6 µM (active).

What is called IC50 is the concentration at which inhibition is half-maximal. Take `Cc1ccc(S(=O)(=O)N2CCc3cc(C(=O)NCCN(Cc4ccccc4)C(C)C)ccc3C2)cc1`: the IC50 in [2] is 0.0467 µM (active); in assay [3], > 32 µM (inactive); in [4] it was 0.0675 µM (active); on Mu-type opioid receptor, 15.1 µM (inactive); in [5], < 0.0031 µM (active).

What is called EC50 is the midpoint of the concentration-response curve. Turning to `Oc1c(Br)cc(Br)cc1/C=N/NC(=S)N[C@H]1CC2C=CC1C2` (stereo partly drawn), the values for the IC50 at NS3 and at Albumin were 7.8 µM (active) and > 94.1 µM (inactive), respectively. Besides, the EC50 is 0.448 µM (active) in the assay with Streptococcus, 0.109 µM (active) in [6], > 9.47 µM (active) at Caspase-3 and > 85.3 µM (inactive) at Caspase-7. Moreover, in the assay with INS1, the AC50 was 2 µM (active).
